In publication PMC12930396, “Positive modulators of N-methyl-D-aspartate receptor: structure–activity relationship study on steroidal C-17 and C-20 oxime ethers” (RSC Advances, 2026):
Values after ≈ are worked out from the molar mass of the structure shown. “Also recorded” adds a separate entry of the source. Like-named read-outs stand apart in the source and are kept apart here.

How the values were obtained:
[1] = Thermodynamic solubility in PBS pH 7.4; format: physicochemical; conditions: 20 °C, pH 7.4, aqueous buffer, thermodynamic from solid
Protocol: The reference samples were prepared as follows: a weight corresponding to 2.5 µmol was dissolved in 250 µL of DMSO, resulting in a concentration of 10 mM stock solution. Each calibration level standard was prepared by diluting the stock solution in a mixture of PBS and acetonitrile (50 : 50 v/v). The samples for testing were prepared as follows: the volume of 1000 µL of PBS was added to the testing tube containing a weight of sample corresponding to 0.4 mM. The mixture was shaken at 1000 rpm at 20 °C for 24 h. The mixture was then filtered using a syringe polypropylene 0.45 µm filter. Samples and calibration standards are prepared using an automated system of a robotic arm (PAL-RTC, Switzerland). Then, the sample was analysed on chromatographic system (Vanquish UHPLC, Thermo Fisher Scientific, Germany) connected to the diode array detector and consequently to the charged aerosol detector (both Vanquish, Thermo Fisher Scientific, Germany), Thermo Scientific Accucore C8 (100 × 3 mm; 2.6 µm) column, using gradient elution with acetonitrile/methanol/5 mM formate buffer (pH = 3.00); flow: 1.0 cm^3 min^−1; column temperature: 40 °C; CAD temperature: 30 °C; sample volume: 5 mm^3.

Stability in rat plasma = format: in vitro ADME
Protocol: Compounds were prepared as 1.6 mg mL^−1 stock solutions in methanol. Then, 20 µL of stock solution was added to 1000 µL of rat plasma (BioIVT, Cat. No. RAT00PLLH-0102307), maintained at 37 °C. Aliquots (50 µL) withdrawn at 0, 8, and 24 h were analyzed by HPLC. An aliquot of plasma was extracted with methanol (450 µL) containing an internal standard, and the solution was vortexed (20 s) and centrifuged at 13 500 rpm for 10 min. The supernatant was transferred to an autosampler vial, and 10 µL was injected into an LC-MS system. The samples were analyzed using an Agilent 6230 TOF LC/MS. Samples were separated on a Waters ACQUITY UPLC CSH Phenyl-Hexyl column (100 × 2.1, 130 Å, 1.7 µm) at a flow rate of 0.3 mL min^−1. […]. The temperature, the flow rate of the nitrogen drying gas, the pressure of the nitrogen nebulizing gas, and the flow rate of the sheath gas were set at 325 °C, 10 L min^−1, 40 psi, […], and 11 L min^−1, respectively. Results are represented as a percentage of the compound remaining in spiked plasma.

GluN1/GluN2B receptors = target: T1, GluN1/GluN2B receptors (Rattus norvegicus, UniProt P35439+Q00960); experiment: Patch-clamp: modulation of glutamate-induced currents of recombinant GluN1/GluN2B receptors expressed in HEK293 cells; format: cell-based; conditions: for h ± SEM (apparent Hill coefficient): concentration-response fit; for h ± SEM (apparent Hill coefficient) / EC50 / Emax: mean ± SEM; for EC50: half-maximal potentiation of currents evoked by 1 µM glutamate; for EC50 / Emax: HEK293; for Emax: maximal potentiation of currents evoked by 1 µM glutamate and 30 µM glycine
T1 construct: expressed in transfected cells; host or cells: HEK293 cells (ATCC No. CRL-1573)
T1 sequence (Q00960 27-1482, other chains not shown): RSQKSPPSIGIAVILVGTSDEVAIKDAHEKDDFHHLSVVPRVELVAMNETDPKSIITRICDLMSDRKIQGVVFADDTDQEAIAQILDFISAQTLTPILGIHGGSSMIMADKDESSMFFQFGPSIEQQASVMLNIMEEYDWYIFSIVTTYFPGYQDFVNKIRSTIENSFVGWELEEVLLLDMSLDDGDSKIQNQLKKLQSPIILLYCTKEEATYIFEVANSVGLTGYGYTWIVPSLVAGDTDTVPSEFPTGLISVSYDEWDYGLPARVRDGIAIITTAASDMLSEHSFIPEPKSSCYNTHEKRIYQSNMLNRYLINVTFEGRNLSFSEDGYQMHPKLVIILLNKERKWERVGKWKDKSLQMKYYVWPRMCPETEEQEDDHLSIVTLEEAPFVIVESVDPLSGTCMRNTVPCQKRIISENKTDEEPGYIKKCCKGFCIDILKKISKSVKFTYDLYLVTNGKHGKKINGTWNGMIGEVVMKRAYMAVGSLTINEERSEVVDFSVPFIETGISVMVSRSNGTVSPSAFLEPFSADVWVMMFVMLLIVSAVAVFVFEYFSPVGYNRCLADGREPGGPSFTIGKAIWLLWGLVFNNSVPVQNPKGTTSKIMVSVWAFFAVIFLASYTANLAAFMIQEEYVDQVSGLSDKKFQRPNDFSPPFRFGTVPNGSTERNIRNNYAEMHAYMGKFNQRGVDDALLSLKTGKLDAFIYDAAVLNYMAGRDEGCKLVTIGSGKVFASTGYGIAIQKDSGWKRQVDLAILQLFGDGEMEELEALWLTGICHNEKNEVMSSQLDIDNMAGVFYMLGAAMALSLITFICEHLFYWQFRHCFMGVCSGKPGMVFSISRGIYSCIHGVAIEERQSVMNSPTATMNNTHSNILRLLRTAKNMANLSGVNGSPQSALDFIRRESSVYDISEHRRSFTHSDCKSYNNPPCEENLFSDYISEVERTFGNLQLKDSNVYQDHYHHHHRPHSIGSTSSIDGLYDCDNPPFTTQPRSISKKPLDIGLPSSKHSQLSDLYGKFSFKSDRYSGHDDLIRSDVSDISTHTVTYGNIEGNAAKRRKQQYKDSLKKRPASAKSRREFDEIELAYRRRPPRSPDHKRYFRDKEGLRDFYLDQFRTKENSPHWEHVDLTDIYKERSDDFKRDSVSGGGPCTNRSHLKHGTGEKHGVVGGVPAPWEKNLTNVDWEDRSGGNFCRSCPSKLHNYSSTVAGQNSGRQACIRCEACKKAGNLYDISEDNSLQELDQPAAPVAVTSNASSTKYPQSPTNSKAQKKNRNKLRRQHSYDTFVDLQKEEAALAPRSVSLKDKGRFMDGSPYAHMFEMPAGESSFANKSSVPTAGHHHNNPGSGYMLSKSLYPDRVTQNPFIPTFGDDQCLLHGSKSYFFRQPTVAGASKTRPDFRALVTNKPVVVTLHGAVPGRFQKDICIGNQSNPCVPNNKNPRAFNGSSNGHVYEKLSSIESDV
Protocol: To investigate the effect of compounds 11–23 on the activity of NMDARs, electrophysiological measurements were performed on HEK293 cells that were co-transfected with cDNAs containing genes encoding for the rat GluN1-1a and GluN2B subunits. The degree of modulation (E; potentiation/inhibition) for the newly synthesized compounds was determined using the following formula: [drawing 1] where Ie is the value of the current amplitude during glutamate and compound coapplication, and Ia is the current amplitude value for glutamate application. […] The results are presented as mean ± standard error of the mean (SEM), with n equal to the number of independent measurements. One-way analysis of variance (ANOVA) was used for multiple comparisons (unless otherwise stated, a value of P ≤ 0.05 was used for the determination of significance).
We have evaluated the relationship between oxime derivatives 11–23 and their modulatory effect on recombinant GluN1/GluN2B receptors. Due to the […] effect of neurosteroid-based PAMs at NMDARs[20,44]
HEK293 cells (American Type Culture Collection, ATCC No. CRL-1573, Rockville, MD, USA) were cultured in Opti-MEM I (Invitrogen, Carlsbad, CA, USA) supplemented with 5% fetal bovine serum (FBS; PAN Biotech, Aidenbach, Germany) at 37 °C in 5% CO2. 24 h before transfection, HEK293 cells were plated in 24-well plates at a density of 2 × 10^5 cells per well. The next day, the cells were transfected with cDNA encoding rat GluN1-1a (GluN1; GenBank accession number U08261)[56] and GluN2B (GenBank accession number M91562)[57] subunits (in the pCI-neo expression vector), along with green fluorescent protein (GFP; in the pQBI 25 vector, Takara, Tokyo, Japan). Briefly, equal amounts (200 ng) of cDNAs encoding GluN1-1a, GluN2B, and GFP were mixed with 0.6 µl of Matra-A reagent (IBA, Gottingen, Germany) in 50 µL of Opti-MEM I and added to confluent HEK293 cells cultured in 24-well plates. After trypsinization, the cells were resuspended in Opti-MEM I containing 1% FBS, supplemented with 20 mM MgCl2, 1 mM D,L-2-amino-5-phosphonovaleric acid, 3 mM kynurenic acid, and 1 µM ketamine, and plated on 30 mm glass coverslips coated with collagen and poly-L-lysine. Transfected cells were identified by GFP epifluorescence. Electrophysiology experiments were performed 24–48 h after transfection.
Whole-cell current recordings, voltage-clamped at a holding potential of −60 mV, were performed at room temperature using a patch-clamp amplifier (Axopatch 200B; Molecular Devices, Sunnyvale, CA, USA) after capacitance and series resistance (<10 MΩ) compensation (80–90%). NMDAR current responses were low-pass filtered at 2 kHz, digitally sampled at 5 kHz, and analysed using pClamp software (version 10.6; Molecular Devices). Patch pipettes (3–5 MΩ), pulled from borosilicate glass, were filled with an intracellular solution (ICS) containing (in mM): 15 CsCl, 10 BAPTA, 3 MgCl2, 1 CaCl2, 120 gluconic acid, 10 HEPES, and 2 ATP-Mg salt (pH adjusted to 7.2 with CsOH). The extracellular solution (ECS) contained (in mM): 160 NaCl, 2.5 KCl, 0.2 EDTA, 10 glucose, 10 HEPES, and 0.7 CaCl2 (pH adjusted to 7.3 with NaOH). NMDAR responses were induced by 1 µM glutamate and 30 µM glycine. 1% DMSO was present in all control and testing solutions. Solution applications were performed using a microprocessor-controlled multibarrel fast-perfusion system with a solution exchange rate around the cells of ∼10 ms.[58]

in vitro [2] = conditions: for half-life at 10 µM: rat, microsomes
Protocol: The reactions were terminated by the addition of four volumes of ice-cold methanol, mixed vigorously, and left at −20 °C for 1h. After that, the samples were centrifuged and the supernatants were analysed by means of ECHO-MS® System (Sciex, Framingham, MA, USA). Zero time points were prepared by adding ice-cold methanol to the mixture of the compound with cofactors before the addition of microsomes. […] Intrinsic clearance (CLint) was calculated using the following formula: [drawing 4] where V is the incubation volume per milligram of microsomal protein (µL mg^−1) and t1/2 is the microsomal half-life.

in vitro [3] = conditions: for PAMPA permeability Retention (mass retention): 5 h, 100 µM; for PAMPA permeability Retention (mass retention) / Papp at 5 h, 100 µM: pH 7.4; for Papp at 5 h, 100 µM: PAMPA
Protocol: Permeability was quantified using permeability coefficients (Pe) and mass retention, the latter representing the proportion of compound retained in the membrane.
Permeation experiments were conducted in polystyrene 96-well filter plates with PVDF membrane pre-coated with structured layers of phospholipids (Corning Gentest™) according to the manufacturer's instructions. Briefly, the plate was warmed to room temperature, and meanwhile, the solutions of the compounds were diluted from 10 mM DMSO stocks to TRIS–HCl buffer pH 7.4 to reach a 100 µM final concentration. The DMSO concentration in the samples was 1%. Then, 300 µL of these solutions were transferred into the donor (receiver) plate wells, and 200 µL of the (TRIS) buffer was added to the acceptor (filter) plate wells. The filter plate and receiver plate were assembled and incubated for 5 h on an orbital shaker (300 rpm). After this, the concentration of the tested substances in both the donor and acceptor compartments was determined with use of LC/MS. Liquid chromatography was performed using an ExionLC AD pump and autosampler from Sciex (Framingham, MA, USA). […] The mobile phase flow rate was 300 µL min^−1. The column Synergi Fusion-RP from Phenomenex (Torrance, CA, USA) was used and was kept at 40 °C during the analysis.

[4] = Solubility PBS, pH 7.4 (thermodynamic)

Row | SMILES | solubility thermodynamic at 24 h [1, 4] [µM] | Stability in rat plasma (% remaining) 8 h (Stability in rat plasma; rat, plasma) [% remaining] | Stability in rat plasma (% remaining) 24 h (Stability in rat plasma; rat, plasma) [% remaining] | solubility thermodynamic at 24 h ([1]; PBS, PBS pH 7.4, 20 °C, 24 h, read-out: Solubility PBS, pH 7.4 (thermodynamic)) [µM] | Stability in rat plasma (% remaining) 8 h (Stability in rat plasma; rat plasma, 37 °C) [% remaining] | Stability in rat plasma (% remaining) 24 h (Stability in rat plasma; rat plasma, 37 °C) [% remaining] | h ± SEM (apparent Hill coefficient) (GluN1/GluN2B receptors) | EC50 (GluN1/GluN2B receptors) [µM] | Emax (GluN1/GluN2B receptors) [%] | Stability in rat microsomes Clint (in vitro [2]) [µlmin^−1mg] | half-life at 10 µM (in vitro [2]; pH 7.4) [min] | PAMPA permeability (in vitro [3]) | PAMPA permeability Retention (mass retention) (in vitro [3]) [%] | Papp at 5 h, 100 µM (in vitro [3]) [×10⁻⁶ cm/s] | Modulatory profile at NMDARs (GluN1/GluN2B receptors; GluN1/GluN2B in HEK293) | Metabolic stability in rat liver microsomes (in vitro [2]; 1 h, 10 µM, pH 7.4)
1 | CC(=O)[C@H]1CC[C@H]2[C@@H]3CC=C4C[C@@H](OC(=O)CCCCC(=O)O)CC[C@]4(C)[C@H]3CC[C@]12C [20-Oxo-PE-hAdi, 20-Oxo-pregn-5-en-3β-yl hemiadipate, reference compound] | 20 ± 2 (≈ 8.89 µg/mL) | 11 ± 0 | 2 ± 0 | – | – | – | – | – | – | – | – | – | – | – | – | –
2 | CC(=O)[C@H]1CC[C@H]2[C@@H]3CC=C4C[C@@H](OC(=O)CCCC(=O)O)CC[C@]4(C)[C@H]3CC[C@]12C [20-Oxo-PE-hGlu, 20-Oxo-pregn-5-en-3β-yl hemiglutarate, reference compound] | – | – | – | 86 ± 1 (≈ 37 µg/mL) | 44 ± 3 | 21 ± 1 | – | – | – | – | – | – | – | – | – | –
3 | C/C(=N\O)[C@H]1CCC2C3CC=C4C[C@@H](OC(=O)CCCC(=O)O)CC[C@]4(C)C3CC[C@@]21C (stereo partly drawn) [Compound 11, 20-Oxo-pregn-5-en-3β-yl 3-hemiglutarate 20-oxime] | – | 69.9 ± 6.0 | 58.1 ± 8.1 | – | – | – | 1.5 ± 0.1 | 7.9 ± 2.1 | 270 ± 35 | 23.6 | 58.6 ± 18.7 | comparable to or greater than that of verapamil | 87 | 155 | – | –
4 | C[C@]12CC[C@H](OC(=O)CCCC(=O)O)CC1=CCC1C2CC[C@]2(C)/C(=N/O)CCC12 (stereo partly drawn) [Compound 14, 17-Oxo-androst-5-en-3β-yl 3-hemiglutarate 17-oxime] | – | 61.1 ± 1.6 | 56.3 ± 2.5 | – | – | – | – | – | – | – | > 60 | moderate permeability | 17 | 26.3 | not identified as PAMs; also recorded: lost its PAM-activity | –
5 | CCO/N=C1\CCC2C3CC=C4C[C@@H](OC(=O)CCCC(=O)O)CC[C@]4(C)C3CC[C@]12C (stereo partly drawn) [Compound 15, 17-Oxo-androst-5-en-3β-yl hemiglutarate O-ethyloxime] | – | 82.1 ± 7.5 | 69.9 ± 5.0 | – | – | – | 1.5 ± 0.1 | 22.7 ± 3.1 | 441 ± 76 | – | > 60 | – | 80 | – | – | –
6 | CCO/N=C(\C)[C@H]1CCC2C3CC=C4C[C@@H](OC(=O)CCC(=O)O)CC[C@]4(C)C3CC[C@@]21C (stereo partly drawn) [Compound 22, 20-Oxo-pregn-5-en-3β-yl hemisuccinate O-ethyloxime] | 22 ± 1 | – | – | – | – | – | 1.3 ± 0.1 | 7 ± 1.1 | 340 ± 22 | 26.3 | 52.6 ± 3.7 | – | 96 | 1.58 | – | –
7 | CCO/N=C(\C)[C@H]1CCC2C3CC=C4C[C@@H](OC(=O)CCCCC(=O)O)CC[C@]4(C)C3CC[C@@]21C (stereo partly drawn) [Compound 23, 20-Oxo-pregn-5-en-3β-yl hemiadipate O-ethyloxime] | 21 ± 1 (≈ 10.2 µg/mL) | – | – | – | – | – | 1.7 ± 0.1 | 7.5 ± 1.1 | 451 ± 79 | – | > 60 | – | 100 | – | – | no detectable metabolism after 60 min
